{"source": "paper PMC10914731", "about": "“Homo-BacPROTAC-induced degradation of ClpC1 as a strategy against drug-resistant mycobacteria” (Nature Communications, 2024)", "key": {"full-length ClpC1": {"molecular_target": "T1, full-length ClpC1 (Mycolicibacterium smegmatis, UniProt A0R574)", "T1 construct": "We also analyzed whether full-length ClpC1 would be degraded in this assay; made in house", "T1 sequence (A0R574 whole entry)": "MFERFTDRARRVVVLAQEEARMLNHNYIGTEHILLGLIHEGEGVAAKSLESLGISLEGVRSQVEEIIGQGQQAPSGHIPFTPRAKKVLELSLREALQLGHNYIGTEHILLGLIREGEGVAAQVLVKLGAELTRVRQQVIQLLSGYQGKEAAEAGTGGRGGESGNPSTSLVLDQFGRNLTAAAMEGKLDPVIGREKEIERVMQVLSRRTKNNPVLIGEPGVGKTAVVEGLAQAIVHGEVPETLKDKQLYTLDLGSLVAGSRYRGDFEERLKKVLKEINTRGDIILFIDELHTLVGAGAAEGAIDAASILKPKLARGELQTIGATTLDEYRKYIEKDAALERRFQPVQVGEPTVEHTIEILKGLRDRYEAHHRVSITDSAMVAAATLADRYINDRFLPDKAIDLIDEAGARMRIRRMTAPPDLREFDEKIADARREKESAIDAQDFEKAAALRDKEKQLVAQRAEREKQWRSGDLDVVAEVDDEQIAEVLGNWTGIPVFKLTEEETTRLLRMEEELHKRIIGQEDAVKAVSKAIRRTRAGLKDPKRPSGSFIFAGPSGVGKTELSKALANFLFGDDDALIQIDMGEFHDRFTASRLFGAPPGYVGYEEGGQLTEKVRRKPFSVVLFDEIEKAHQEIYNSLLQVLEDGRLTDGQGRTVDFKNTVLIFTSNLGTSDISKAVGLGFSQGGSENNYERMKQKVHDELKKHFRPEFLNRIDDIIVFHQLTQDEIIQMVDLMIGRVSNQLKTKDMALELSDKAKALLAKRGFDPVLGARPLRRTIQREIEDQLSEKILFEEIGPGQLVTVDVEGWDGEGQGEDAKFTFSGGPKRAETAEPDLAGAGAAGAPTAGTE", "test": "Cell-free degradation of full-length ClpC1 (WES, SDS-PAGE)", "type": "biochemical, M. smegmatis", "conditions": "WES / SYPRO Ruby SDS-PAGE, result in words", "from_the_text": "We also analyzed whether full-length ClpC1 would be degraded in this assay, by analyzing the stability of the full-length form monitored by a ClpC1-N-terminal antibody in the WES assays, or directly by SYPRO^TM Ruby stained SDS-PAGE gels in the presence or absence of ClpC1-NTD as additional substrate. The Homo-BacPROTACs tested induced no or only minor degradation of the full-length ClpC1 under these in vitro conditions (Fig. 4e). Whether this is due to hexamer formation stabilizing ClpC1 protomers or missing cofactor(s) of the protease complex, is currently unclear. Likewise, the exact sequential and structural features of native substrates targeted by ClpC1 are not known, except that partially disordered peptide segments can promote degradation.\nFor SDS-PAGE experiments, reaction samples were treated with 2.7 µl 4x Roti Load 1 (Roth #K929.1), instead of adding sample buffer and fluorescent mastermix, and incubated at 95 °C for 5 min. […] The PageRuler Prestained Protein Ladder (Thermo Scientific #26616) was used as a marker. […]"}, "[1]": {"molecular_target": "ClpC1 NTD, M. smegmatis ClpC1P1P2 complex (UniProt A0R574+P9WPC9)", "sequence (P9WPC9 1-156, looked up, natural form)": "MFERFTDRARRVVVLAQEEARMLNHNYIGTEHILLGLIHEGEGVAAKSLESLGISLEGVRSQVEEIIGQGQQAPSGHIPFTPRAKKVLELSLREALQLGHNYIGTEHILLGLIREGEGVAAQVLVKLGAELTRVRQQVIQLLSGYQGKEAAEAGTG", "sequence (A0R574 whole entry)": "as the sequence (A0R574 whole entry) above", "type": "biochemical", "conditions": "for ClpC1 NTD peak area: replicates 1 and 2; for % Response: two replicates"}}, "note": "Several values for one entry are separate records, joined by “and”; a condition that tells them apart may be missing. Identical values can stand only once. Like-named read-outs stand apart in the source and are kept apart here.", "data": [{"molecule": "COC(c1ccccc1)C1NC(=O)C(C)NC(=O)C(CC(C)CO)N(C)C(=O)C(Cc2cn(Cc3cn(CCOCCOCCOCCOCCn4cc(Cn5cc(CC6NC(=O)C(C(C)C)NC(=O)C(CC(C)C)N(C)C(=O)C(C(C)C)NC(=O)C(C(OC)c7ccccc7)NC(=O)C(C)NC(=O)C(CC(C)CO)N(C)C6=O)c6ccccc65)nn4)nn3)c3ccccc23)NC(=O)C(C(C)C)NC(=O)C(CC(C)C)N(C)C(=O)C(C(C)C)NC1=O", "note": "(stereo not shown) [Compound 8]", "values": [{"measurement": "degradation of full-length ClpC1", "setting": "full-length ClpC1", "value": "not significantly degraded"}, {"measurement": "ClpC1 NTD peak area", "setting": "[1]; 8 µM compound, time 0 min", "value": "331639 and 301583"}, {"measurement": "% Response", "setting": "[1]; 8 µM compound, time 0 min", "value": "94.5282% and 100.62%"}, {"measurement": "ClpC1 NTD peak area", "setting": "[1]; 8 µM compound, time 45 min", "value": "314553 and 280109"}, {"measurement": "% Response", "setting": "[1]; 8 µM compound, time 45 min", "value": "83.982% and 77.683%"}, {"measurement": "ClpC1 NTD peak area", "setting": "[1]; 8 µM compound, time 90 min", "value": "285641 and 244656"}, {"measurement": "% Response", "setting": "[1]; 8 µM compound, time 90 min", "value": "56.6216% and 52.7782%"}, {"measurement": "ClpC1 NTD peak area", "setting": "[1]; 8 µM compound, time 150 min", "value": 191892}, {"measurement": "% Response", "setting": "[1]; 8 µM compound, time 150 min", "value": 43.2573, "unit": "%"}, {"measurement": "ClpC1 NTD peak area", "setting": "[1]; 8 µM compound, time 240 min", "value": "311145 and 177822"}, {"measurement": "% Response", "setting": "[1]; 8 µM compound, time 240 min", "value": "45.4516% and 26.6563%"}, {"measurement": "ClpC1 NTD peak area", "setting": "[1]; 8 µM compound, time 360 min", "value": "222125 and 221356"}, {"measurement": "% Response", "setting": "[1]; 8 µM compound, time 360 min", "value": "26.4436% and 30.03%"}, {"measurement": "ClpC1 NTD peak area", "setting": "[1]; 33 µM compound, time 0 min", "value": "810154 and 722357"}, {"measurement": "% Response", "setting": "[1]; 33 µM compound, time 0 min", "value": "102.812% and 94.7011%"}, {"measurement": "ClpC1 NTD peak area", "setting": "[1]; 33 µM compound, time 45 min", "value": "641074 and 448402"}, {"measurement": "% Response", "setting": "[1]; 33 µM compound, time 45 min", "value": "59.8432% and 44.7396%"}, {"measurement": "ClpC1 NTD peak area", "setting": "[1]; 33 µM compound, time 90 min", "value": "173883 and 214990"}, {"measurement": "% Response", "setting": "[1]; 33 µM compound, time 90 min", "value": "14.8318% and 19.2596%"}, {"measurement": "ClpC1 NTD peak area", "setting": "[1]; 33 µM compound, time 150 min", "value": "175010 and 133678"}, {"measurement": "% Response", "setting": "[1]; 33 µM compound, time 150 min", "value": "13.2219% and 10.0521%"}, {"measurement": "ClpC1 NTD peak area", "setting": "[1]; 33 µM compound, time 240 min", "value": "91238.1 and 172941"}, {"measurement": "% Response", "setting": "[1]; 33 µM compound, time 240 min", "value": "6.759% and 11.5705%"}, {"measurement": "ClpC1 NTD peak area", "setting": "[1]; 33 µM compound, time 360 min", "value": "204242 and 62562.1"}, {"measurement": "% Response", "setting": "[1]; 33 µM compound, time 360 min", "value": "8.812% and 3.58%"}]}]}
